Consider three molecules from ChEMBL document CHEMBL4196002, “Design, synthesis, mechanistic and histopathological studies of small-molecules of novel indole-2-carboxamides and pyrazino[1,2-a]indol-1(2H)-ones as potential anticancer agents effecting the reactive oxygen species production” (Eur J Med Chem, 2018).

The structures appear in SMILES notation. The source made the active and inactive calls. The calls are words filed in the database; no cut-off is given here.

The nature of data set [1]: Cytotoxicity against human MCF10A cells assessed as cell viability at 50 uM after 96 hrs by MTT assay relative to control. It is filed as cell-based, MCF-10A. The conditions noted are these: read-out: Activity.
The nature of data set [2]: Inhibition of ROS generation in human PMN at 0.78 ug/ml after 50 mins by luminol-based chemiluminescence assay relative to control. It is filed as functional.
Data set [3] can be described thus: Inhibition of ROS generation in human PMN at 1.56 ug/ml after 50 mins by luminol-based chemiluminescence assay relative to control. In kind it is functional.
The next data set deals with PC-3. The data set is described as follows: Antiproliferative activity human PC3 cells after 48 hrs by propidium iodide staining-based fluorescence assay. It is filed as functional, cell-based. The note with it: PC-3, 48 h.
The test system of another data set is A549. The data set is described as follows: Antiproliferative activity human A549 cells after 48 hrs by propidium iodide staining-based fluorescence assay. It is filed as functional, cell-based. The conditions noted are these: A549, 48 h.
Data set [4] concerns MCF7. The data set is described as follows: Antiproliferative activity human MCF7 cells after 48 hrs by propidium iodide staining-based fluorescence assay. In kind it is functional, cell-based. The note with it: MCF7, 48 h.
The next data set relates to MIA PaCa-2. The data set is described as follows: Antiproliferative activity human MIAPaCa2 cells after 48 hrs by propidium iodide staining-based fluorescence assay. It is filed as functional, cell-based. The note with it: MIA PaCa-2, 48 h.
The next data set relates to HT-29. As to the kind of experiment: Antiproliferative activity human HT-29 cells after 48 hrs by propidium iodide staining-based fluorescence assay. In kind it is functional, cell-based. The note with it: HT-29, 48 h.
The target of another data set is Tubulin (Homo sapiens) (UniProt P68371+Q9H4B7+P0DPH7+P68366+Q13509+Q71U36+P04350+Q3ZCM7+P07437+P68363+Q9BQE3+Q6PEY2+Q13885+Q9BVA1+Q9BUF5). As to the kind of experiment: Inhibition of tubulin (unknown origin) polymerization assessed as tubulin assembly rate by fluorescence assay. In kind it is protein-complex assay.
Data set [5] addresses Epidermal growth factor receptor (Homo sapiens, UniProt P00533). The data set is described as follows: Inhibition of His6-tagged EGFR (unknown origin) cytoplasmic domain expressed in baculovirus infected Sf9 insect cells after 10 mins followed by addition of ATP-MgCl2 and measured after 1 hr by time-resolved fluorometric analysis.
The target in data set [6] is Serine/threonine-protein kinase B-raf (Mus musculus, UniProt P28028, V600E). The data set is described as follows: Inhibition of mouse full-length GST-tagged BRAF V600E mutant using recombinant human full length N-terminal His-tagged MEK1 as substrate preincubated for 60 mins followed by substrate addition and measured after 25 mins by ELISA. In general terms: ELISA stands for enzyme-linked immunosorbent assay.
Serine/threonine-protein kinase B-raf, sequence (P28028 whole entry, looked up, stated change not applied): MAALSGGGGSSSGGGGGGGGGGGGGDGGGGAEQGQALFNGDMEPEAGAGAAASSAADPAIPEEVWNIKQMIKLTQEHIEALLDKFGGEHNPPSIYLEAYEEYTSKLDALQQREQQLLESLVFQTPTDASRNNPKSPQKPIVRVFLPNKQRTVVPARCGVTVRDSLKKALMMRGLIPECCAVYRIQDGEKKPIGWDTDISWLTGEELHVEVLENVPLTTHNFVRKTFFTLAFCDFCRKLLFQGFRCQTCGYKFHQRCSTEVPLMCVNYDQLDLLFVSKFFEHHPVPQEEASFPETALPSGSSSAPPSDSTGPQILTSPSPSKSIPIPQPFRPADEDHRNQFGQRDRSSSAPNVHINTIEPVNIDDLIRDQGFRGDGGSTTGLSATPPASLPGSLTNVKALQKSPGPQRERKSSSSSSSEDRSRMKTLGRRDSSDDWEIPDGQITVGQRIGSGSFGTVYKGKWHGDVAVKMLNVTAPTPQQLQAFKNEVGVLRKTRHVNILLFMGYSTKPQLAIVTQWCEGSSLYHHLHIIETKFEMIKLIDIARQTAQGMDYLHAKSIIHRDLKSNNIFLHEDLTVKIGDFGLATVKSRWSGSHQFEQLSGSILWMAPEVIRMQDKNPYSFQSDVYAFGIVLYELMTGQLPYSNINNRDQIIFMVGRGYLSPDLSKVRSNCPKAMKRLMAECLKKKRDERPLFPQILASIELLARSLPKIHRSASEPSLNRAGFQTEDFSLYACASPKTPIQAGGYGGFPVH

Data set [7] is described as follows: Inhibition of ROS generation in human PMN at 3.13 ug/ml after 50 mins by luminol-based chemiluminescence assay relative to control. It is filed as functional.
Data set [8] is described as follows: Inhibition of ROS generation in human PMN at 6.25 ug/ml after 50 mins by luminol-based chemiluminescence assay relative to control. It is filed as functional.
Data set [9] can be described thus: Inhibition of ROS generation in human PMN at 12.5 ug/ml after 50 mins by luminol-based chemiluminescence assay relative to control. In kind it is functional.
Data set [10] can be described thus: (§1) Inhibition of ROS generation in human PMN after 50 mins by luminol-based chemiluminescence assay. It is filed as functional.
For a further data set, the species on record is Homo sapiens. The data set is described as §1. It is filed as functional.
Data set [11] can be described thus: Antioxidant activity assessed as DPPH radical scavenging activity at 100 uM after 30 mins dark incubation. In kind it is functional. (In general: DPPH is a stable violet radical that fades when it is reduced.)
Data set [12] can be described thus: Antioxidant activity assessed as DPPH radical scavenging activity at 50 uM after 30 mins dark incubation. It is filed as functional.
The nature of data set [13]: Antioxidant activity assessed as DPPH radical scavenging activity at 10 uM after 30 mins dark incubation. It is filed as functional.
Data set [14] deals with Mus musculus. The data set is described as follows: Inhibition of chlorpyrifos-induced testicular damage in albino mouse assessed as increase in spermatogenic cell layers at 20 mg/kg, qd administered via oral gavage followed by chlorpyrifos challenge at 30 mins post dose by haematoxylin and eosin staining-based light microscopic analysis. In kind it is functional, organism-based.

Data set [15] concerns Mus musculus. As to the kind of experiment: Inhibition of chlorpyrifos-induced testicular damage in albino mouse assessed as appearance of well-organized spermatogenic layers at different stages of spermatogenesis at 20 mg/kg, qd administered via oral gavage followed by chlorpyrifos challenge at 30 mins post dose by haematoxylin and eosin staining-based light microscopic analysis. It is filed as functional, organism-based.

Data set [16] concerns Mus musculus. As to the kind of experiment: Inhibition of chlorpyrifos-induced testicular damage in albino mouse assessed as appearance of normal sertoli cells at 20 mg/kg, qd administered via oral gavage followed by chlorpyrifos challenge at 30 mins post dose by haematoxylin and eosin staining-based light microscopic analysis. In kind it is functional, organism-based.
Data set [17] relates to Mus musculus. The data set is described as follows: Inhibition of chlorpyrifos-induced testicular damage in albino mouse assessed as appearance of spermatozoa tails in lumina at 20 mg/kg, qd administered via oral gavage followed by chlorpyrifos challenge at 30 mins post dose by haematoxylin and eosin staining-based light microscopic analysis. It is filed as functional, organism-based.

The subject of data set [18] is Mus musculus. The data set is described as follows: Inhibition of chlorpyrifos-induced fibrosis in albino mouse testis assessed as thin fibrous capsule at 20 mg/kg, qd administered via oral gavage followed by chlorpyrifos challenge at 30 mins post dose by masson's trichrome staining-based light microscopic analysis. It is filed as functional, organism-based.
Data set [19] deals with Mus musculus. As to the kind of experiment: Inhibition of chlorpyrifos-induced fibrosis in albino mouse testis assessed as decrease in collagen in interstitium at 20 mg/kg, qd administered via oral gavage followed by chlorpyrifos challenge at 30 mins post dose by masson's trichrome staining-based light microscopic analysis. It is filed as functional, organism-based.
Data set [20] has as its system Mus musculus. As to the kind of experiment: Inhibition of chlorpyrifos-induced iNOS epression in albino mouse testes at 20 mg/kg, qd administered via oral gavage followed by chlorpyrifos challenge at 30 mins post dose by immunohistochemical analysis. In kind it is functional, organism-based.
Data set [21] has as its system Mus musculus. The data set is described as follows: Inhibition of chlorpyrifos-induced caspase3 epression in albino mouse testes at 20 mg/kg, qd administered via oral gavage followed by chlorpyrifos challenge at 30 mins post dose by immunohistochemical analysis. It is filed as functional, organism-based.
Data set [22] concerns Mus musculus. As to the kind of experiment: Inhibition of chlorpyrifos-induced testicular damage in albino mouse assessed as absence of crowdedness of interstitial cells with relatively low exudate at 20 mg/kg, qd administered via oral gavage followed by chlorpyrifos challenge at 30 mins post dose by haematoxylin and eosin staining-based light microscopic analysis. In kind it is functional, organism-based.

For data set [23], the system named is MCF7. As to the kind of experiment: Growth inhibition of human MCF7 cells after 48 hrs by SRB assay. In kind it is functional. The conditions noted are these: MCF7, 48 h.
For the next data set, the system named is MDA-MB-435. As to the kind of experiment: Growth inhibition of human MDA-MB-435 cells after 48 hrs by SRB assay. The conditions noted are these: MDA-MB-435, 48 h. It is filed as functional. (Sulforhodamine B stains cellular protein and so reports cell mass.)
The species named for data set [24] is Mus musculus. The conditions noted are these: 20 mg/kg.
Description: Inhibition of chlorpyrifos-induced testicular damage in albino mouse assessed as appearance of spermatozoa tails in narrow lumina at 20 mg/kg, qd administered via oral gavage followed by chlorpyrifos challenge at 30 mins post dose by haematoxylin and eosin staining-based light microscopic analysis
Data set [25] is filed under the species Mus musculus. The note with it: 20 mg/kg. This is another data set of the same source.
Description: Inhibition of chlorpyrifos-induced testicular damage in albino mouse assessed as appearance of vesicular nuclei in spermatogenic cells at 20 mg/kg, qd administered via oral gavage followed by chlorpyrifos challenge at 30 mins post dose by haematoxylin and eosin staining-based light microscopic analysis
The species named for data set [26] is Mus musculus. The note with it: 20 mg/kg. The source holds these as a separate data set.
Description: Inhibition of chlorpyrifos-induced testicular damage in albino mouse assessed as appearance of cellular vaculations in germinal epithelium at 20 mg/kg, qd administered via oral gavage followed by chlorpyrifos challenge at 30 mins post dose by haematoxylin and eosin staining-based light microscopic analysis
The species named for data set [27] is Mus musculus. The conditions noted are these: 20 mg/kg. This is another data set of the same source.
Description: Inhibition of chlorpyrifos-induced testicular damage in albino mouse assessed as absence of sloughed cells at 20 mg/kg, qd administered via oral gavage followed by chlorpyrifos challenge at 30 mins post dose by haematoxylin and eosin staining-based light microscopic analysis
Data set [28] is filed under the species Mus musculus. The note with it: 20 mg/kg. This is another data set of the same source.
Description: Inhibition of chlorpyrifos-induced testicular damage in albino mouse assessed as appearance of separated semniferous tubules by narrow interstitium without exudate at 20 mg/kg, qd administered via oral gavage followed by chlorpyrifos challenge at 30 mins post dose by haematoxylin and eosin staining-based light microscopic analysis

Epidermal growth factor receptor, sequence (P00533 whole entry, the tested form may be a part): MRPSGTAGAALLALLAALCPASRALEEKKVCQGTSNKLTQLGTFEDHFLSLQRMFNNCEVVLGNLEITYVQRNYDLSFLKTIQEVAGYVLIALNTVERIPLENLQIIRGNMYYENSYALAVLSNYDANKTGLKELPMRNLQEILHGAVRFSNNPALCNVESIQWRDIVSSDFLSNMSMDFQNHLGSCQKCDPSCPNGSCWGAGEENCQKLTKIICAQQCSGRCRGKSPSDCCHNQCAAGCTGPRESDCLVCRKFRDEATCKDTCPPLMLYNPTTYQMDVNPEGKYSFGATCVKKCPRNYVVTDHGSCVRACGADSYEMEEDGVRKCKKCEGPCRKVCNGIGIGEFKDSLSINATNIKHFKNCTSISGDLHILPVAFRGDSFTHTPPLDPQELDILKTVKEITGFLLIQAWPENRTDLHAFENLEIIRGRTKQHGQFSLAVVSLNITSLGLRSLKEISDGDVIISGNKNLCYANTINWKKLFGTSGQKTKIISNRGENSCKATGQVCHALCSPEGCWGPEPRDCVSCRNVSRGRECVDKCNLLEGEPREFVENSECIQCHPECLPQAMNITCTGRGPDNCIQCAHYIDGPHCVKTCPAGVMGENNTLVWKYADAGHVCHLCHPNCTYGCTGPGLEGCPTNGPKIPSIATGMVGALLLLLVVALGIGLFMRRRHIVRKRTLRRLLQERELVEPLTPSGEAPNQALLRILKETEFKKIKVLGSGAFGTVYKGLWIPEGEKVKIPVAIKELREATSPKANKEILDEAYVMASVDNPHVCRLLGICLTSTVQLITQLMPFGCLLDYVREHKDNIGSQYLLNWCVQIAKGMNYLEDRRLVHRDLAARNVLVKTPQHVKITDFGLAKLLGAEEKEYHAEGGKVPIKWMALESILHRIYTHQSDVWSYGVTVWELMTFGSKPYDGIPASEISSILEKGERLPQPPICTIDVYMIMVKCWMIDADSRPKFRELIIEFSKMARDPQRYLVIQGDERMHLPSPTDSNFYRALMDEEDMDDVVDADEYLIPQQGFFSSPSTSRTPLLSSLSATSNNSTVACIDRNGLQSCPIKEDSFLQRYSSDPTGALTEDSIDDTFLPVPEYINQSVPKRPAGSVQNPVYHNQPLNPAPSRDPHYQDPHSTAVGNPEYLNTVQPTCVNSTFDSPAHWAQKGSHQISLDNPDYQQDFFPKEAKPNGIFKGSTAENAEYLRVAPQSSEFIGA

As to `O=c1[nH]c(Cc2ccccc2)cn2c1cc1cc(Cl)ccc12`, in data set [1], the viability at 96 h, 50 µM stood at 89%. Further, the inhibition (as a rule, the relative decrease from the control value, in per cent) at 0.78 µg/mL in data set [2] was 47%. In addition, in data set [3], the inhibition at 1.56 µg/mL worked out at 55%. Further, the half-inhibitory concentration (IC50) (in general, the concentration at which inhibition is half-maximal) stood at 1300 nM in the data set with PC-3; 1200 nM in the data set on A549; 900 nM with MCF7 [4]; 1800 nM with MIA PaCa-2; 900 nM in the data set with HT-29; 2400 nM in data set [5]. Besides, the values for the IC50 in data set [6] and in data set [10] were 1000 nM and 3360 nM, respectively. The Activity on Tubulin (Homo sapiens) is 930 a.u; in [11], 91.4%; in [12], 79.6%; in data set [13] it was 69.4%. The inhibition at 3.13 µg/mL in data set [7] came out at 64%. This molecule returned an inhibition at 6.25 µg/mL in data set [8] of 72%. For the same molecule, the inhibition at 12.5 µg/mL in [9] was 81%. Besides, the inhibition entry in the data set filed under Homo sapiens was “Dose-dependent effect”. The inhibition entry with Mus musculus [14], in the data set with Mus musculus [15], with Mus musculus [16], in the data set with Mus musculus [17], with Mus musculus [18] and in the data set on Mus musculus [19] was “Active” throughout. Moreover, the inhibition result in the data set with Mus musculus [20], with Mus musculus [21] and in the data set on Mus musculus [22] was “Active” each time.
Regarding `Cc1ccc(S(=O)(=O)N2c3ccccc3CC2c2nc(Br)cnc2N)cc1` (stereo not drawn), the 50% growth inhibitory concentration (GI50) – broadly, the concentration that inhibits growth by half – with MCF7 [23] amounted to 820 nM; in the data set with MDA-MB-435 it was 290 nM.
For `Cc1c2cc(Cl)ccc2n2cc(Cc3ccccc3)[nH]c(=O)c12`, the viability at 96 h, 50 µM in [1] was found to be 91%. In data set [2], this molecule showed an inhibition at 0.78 µg/mL of 55%. For the same molecule, 1.56 µg/mL produced 60% inhibition in [3]. Also, the IC50 in the data set with PC-3 is 900 nM; with A549, 800 nM; in the data set on MCF7 [4], 100 nM; in the data set with MIA PaCa-2, 300 nM; in the data set on HT-29, 600 nM; in data set [6], 100 nM. Moreover, the midpoint of inhibition in data set [10], the IC50, lay at 1480 nM. For the same molecule, the Activity at Tubulin (Homo sapiens) is 650 a.u; in data set [11], 97.7%; in data set [12], 85.4%; in data set [13], 72.3%. The inhibition at 3.13 µg/mL in [7] is 72%. Also, 6.25 µg/mL produced 85% inhibition in [8]. In data set [9], this molecule came in with an inhibition at 12.5 µg/mL of 91%. Also, in the data set listed under Homo sapiens, the inhibition result was “Dose-dependent effect”. The inhibition entry with Mus musculus [14], with Mus musculus [18], with Mus musculus [19], in the data set with Mus musculus [20], with Mus musculus [21] and in the data set filed under Mus musculus [24] was “Active” each time. Also, the inhibition entry in the data set listed under Mus musculus [25], in the data set listed under Mus musculus [26], in the data set filed under Mus musculus [27] and in the data set listed under Mus musculus [28] was “Active” throughout.
